Test results taken from patent publication US20060128762A1, “Medicinal composition and method for treating malignant tumor and utilization thereof” (D.Western Therapeutics Institute, priority 2002, published 2006).

Tests used:
[1] = tested on: Murine Monocytic Leukemia P388; assay: Antitumor effect on P388 murine monocytic leukemia transplanted into mouse (survival); format: in vivo; parameters: MST (median survival time): unit not given here; conditions: for MST (median survival time) / Survival number on day 50 / T/C (%): N = 6; for survival rate on day 5: administered alone
Procedure: Monocytic leukemia cell line P388 was purchased from Japanese Foundation for Cancer Research, Cancer Chemotherapy Center. The cryopreserved tumor was transplanted intraperitoneally into DBA/2 mouse (Japan SLC, Inc.). When the abdominal bloating was observed, ascites was removed and subjected to the test.
Compound 2 was weighed and ground down in an agate motor. It was then suspended slowly in the motor by adding 0.5% aqueous methylcellulose solution (M.C.) step by step to obtain 10 mg/ml suspension. The suspension was further diluted with M.C. to obtain a normal concentration and stored at 4° C. CDDP was dissolved and diluted with physiological saline. Immediately after preparation, the CDDP solution was subjected to test.
Male 4-week-old DBA/2 mice (n=10, 2 mice for the present test) and male 4-week-old CDF1 mice (DBA/2×BALB/c) (n=156) were purchased from Japan SLC, Inc., and used six animals per group. Animals were kept in a chamber maintained at room temperature of 21 to 25° C. and humidity of 45-65% with a given lighting time intervals (light period: 7:00 to 19:00; dark period: 19:00 to 7:00) and allowed to access freely to feed (F-2, Funabashi Nojo) and tap water. The animals purchased were used in the test after subjecting to taming and quarantine for 1 week.
The cryopreserved P388 cell lines were transplanted intraperitoneally into DBA/2 mouse. When the abdominal bloating was observed, ascites containing cancer cells were removed. The ascites was diluted with phosphate-buffered physiological saline (PBS, pH7.4) until the cell concentration became 5×10^6 cells/ml. The resultant solution (0.2 ml) was transplanted intraperitoneally into CDF1 mouse (1×10^6 cells/mouse). The drug was administered to mouse (0.1 ml/10 g body weight) on and after the next day of transplantation.
Compound 2 was administered orally and CDDP intraperitoneally. Animals of control group were untreated because of diversity of administration route and complexity of administration schedule.
The administration was started on the next day (day 1) of transplantation of tumor according to the protocol shown in Table 1, i.e., day 1; day 2; or day 1 and 2.

[2] = Stability of the suspension in 0.5% aqueous methylcellulose solution; format: physicochemical; conditions: suspension in 0.5% aqueous methylcellulose solution (M.C.), in a cold place
Procedure: Compound 2 was weighed and ground down in an agate motor. It was then suspended slowly in the motor by adding 0.5% aqueous methylcellulose solution (M.C.) step by step to obtain 10 mg/ml suspension. The suspension was further diluted with M.C. to obtain a normal concentration and stored at 4° C. CDDP was dissolved and diluted with physiological saline. Immediately after preparation, the CDDP solution was subjected to test. It is assured that the suspension of Compound 2 in M.C. is homogeneous and stable for 14 days in a cold place.

[3] = Compound 2 25 mg/kg p.o on day 1
[4] = Compound 2 25 mg/kg p.o on day 2
[5] = Compound 2 50 mg/kg p.o on day 1
[6] = Compound 2 50 mg/kg p.o on day 2
[7] = Compound 2 100 mg/kg p.o on day 1
[8] = Compound 2 100 mg/kg p.o on day 2

N.N.[Cl][Pt][Cl] [CDDP, cis-platinum (II) diamine chloride, reference compound]
MST (median survival time) ([1]; CDDP 2.5 mg/kg i.p on day 1): 14.5
Survival number on day 50 ([1]; CDDP 2.5 mg/kg i.p on day 1): 0
T/C (%) ([1]; CDDP 2.5 mg/kg i.p on day 1): 145%
MST (median survival time) ([1]; CDDP 2.5 mg/kg i.p on day 2): 15.5
Survival number on day 50 ([1]; CDDP 2.5 mg/kg i.p on day 2): 0
T/C (%) ([1]; CDDP 2.5 mg/kg i.p on day 2): 155%
MST (median survival time) ([1]; CDDP 5 mg/kg i.p on day 1): 17
Survival number on day 50 ([1]; CDDP 5 mg/kg i.p on day 1): 0
T/C (%) ([1]; CDDP 5 mg/kg i.p on day 1): 170%
MST (median survival time) ([1]; CDDP 5 mg/kg i.p on day 2): 17
Survival number on day 50 ([1]; CDDP 5 mg/kg i.p on day 2): 0
T/C (%) ([1]; CDDP 5 mg/kg i.p on day 2): 170%
MST (median survival time) ([1]; CDDP 10 mg/kg i.p on day 1): 17
Survival number on day 50 ([1]; CDDP 10 mg/kg i.p on day 1): 0
T/C (%) ([1]; CDDP 10 mg/kg i.p on day 1): 170%
MST (median survival time) ([1]; CDDP 10 mg/kg i.p on day 2): 17
Survival number on day 50 ([1]; CDDP 10 mg/kg i.p on day 2): 0
T/C (%) ([1]; CDDP 10 mg/kg i.p on day 2): 170%
survival rate on day 5 [1]: not observed

COc1ccc(S(=O)(=O)N(C(C)=O)c2ccccc2/C=C/c2cc[n+]([O-])cc2)cc1 [Compound 2, (E)-4-[2-[2-[N-acetyl-N-[(p-methoxyphenyl)sulfonyl]-amino]phenyl]ethenyl]pyridine 1-oxide]
time for which the suspension in M.C. is homogeneous and stable [2]: 14 days
MST (median survival time) [1, 3]: 12.5
Survival number on day 50 [1, 3]: 0
T/C (%) [1, 3]: 125%
MST (median survival time) [1, 4]: 13
Survival number on day 50 [1, 4]: 0
T/C (%) [1, 4]: 130%
MST (median survival time) [1, 5]: 13
Survival number on day 50 [1, 5]: 0
T/C (%) [1, 5]: 130%
MST (median survival time) [1, 6]: 13
Survival number on day 50 [1, 6]: 0
T/C (%) [1, 6]: 130%
MST (median survival time) [1, 7]: 16.5
Survival number on day 50 [1, 7]: 0
T/C (%) [1, 7]: 165%
MST (median survival time) [1, 8]: 15
Survival number on day 50 [1, 8]: 0
T/C (%) [1, 8]: 150%
survival rate on day 5 [1]: not observed
